Assay results from ChEMBL document CHEMBL1132848, “1H-pyrazole-1-carboxamidines: new inhibitors of nitric oxide synthase” (Bioorg Med Chem Lett, 2000).

Experiments:
[1] = target: Nitric oxide synthase 1 (Rattus norvegicus) (UniProt P29476); assay: (§1) Time dependent inhibition against neuronal Nitric Oxide Synthase(nNOS)
[2] = Selectivity for neuronal(nNOS) and induced Nitric Oxide Synthase(iNOS); design: reference not given here
Nitric oxide synthase 1 [3] = target: T1, Nitric oxide synthase 1 (Rattus norvegicus, UniProt P29476); assay: as §1
T1 sequence (P29476 whole entry): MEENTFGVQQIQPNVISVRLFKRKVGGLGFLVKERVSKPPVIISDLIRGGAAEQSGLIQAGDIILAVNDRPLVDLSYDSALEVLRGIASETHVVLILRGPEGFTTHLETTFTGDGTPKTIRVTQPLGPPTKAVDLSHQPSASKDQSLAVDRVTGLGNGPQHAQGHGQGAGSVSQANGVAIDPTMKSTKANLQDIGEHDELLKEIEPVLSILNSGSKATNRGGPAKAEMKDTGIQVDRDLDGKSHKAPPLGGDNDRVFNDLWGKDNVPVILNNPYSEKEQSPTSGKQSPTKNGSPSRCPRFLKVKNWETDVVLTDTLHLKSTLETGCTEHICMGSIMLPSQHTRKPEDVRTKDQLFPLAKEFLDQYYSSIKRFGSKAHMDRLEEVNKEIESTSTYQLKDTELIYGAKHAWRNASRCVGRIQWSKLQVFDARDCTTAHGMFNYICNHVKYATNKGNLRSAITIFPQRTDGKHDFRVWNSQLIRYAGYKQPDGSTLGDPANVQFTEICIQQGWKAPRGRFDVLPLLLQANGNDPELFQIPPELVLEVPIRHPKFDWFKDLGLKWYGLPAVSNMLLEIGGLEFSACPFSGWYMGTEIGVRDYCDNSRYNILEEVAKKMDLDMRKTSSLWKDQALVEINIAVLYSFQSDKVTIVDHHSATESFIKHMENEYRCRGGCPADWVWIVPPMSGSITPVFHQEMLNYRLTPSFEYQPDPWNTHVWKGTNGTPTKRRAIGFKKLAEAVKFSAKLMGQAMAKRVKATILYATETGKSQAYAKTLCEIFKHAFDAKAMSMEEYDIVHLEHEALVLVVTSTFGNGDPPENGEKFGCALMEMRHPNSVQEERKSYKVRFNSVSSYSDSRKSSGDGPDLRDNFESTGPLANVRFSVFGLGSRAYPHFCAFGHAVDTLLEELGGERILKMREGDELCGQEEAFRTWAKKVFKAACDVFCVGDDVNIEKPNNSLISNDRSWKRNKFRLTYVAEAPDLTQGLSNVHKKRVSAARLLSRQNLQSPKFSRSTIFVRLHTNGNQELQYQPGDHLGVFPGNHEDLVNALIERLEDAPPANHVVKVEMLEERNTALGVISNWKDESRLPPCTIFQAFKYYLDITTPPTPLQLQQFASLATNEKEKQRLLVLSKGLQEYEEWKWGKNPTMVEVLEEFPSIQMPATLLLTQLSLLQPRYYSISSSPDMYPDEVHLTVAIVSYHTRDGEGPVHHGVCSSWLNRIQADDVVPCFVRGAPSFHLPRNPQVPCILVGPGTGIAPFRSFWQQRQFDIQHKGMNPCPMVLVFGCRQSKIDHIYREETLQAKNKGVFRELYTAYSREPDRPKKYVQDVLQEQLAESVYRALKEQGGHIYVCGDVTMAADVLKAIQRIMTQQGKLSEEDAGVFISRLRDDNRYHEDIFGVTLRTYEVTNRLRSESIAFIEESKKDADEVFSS

Nitric oxide synthase 1 [4] = target: T1, Nitric oxide synthase 1; assay: Inhibition against neuronal Nitric Oxide Synthase(nNOS)
Nitric oxide synthase 3 = target: T2, Nitric oxide synthase 3 (Bos taurus, UniProt P29473); assay: Inhibition against endothelial Nitric Oxide Synthase(eNOS)
T2 sequence (P29473 whole entry): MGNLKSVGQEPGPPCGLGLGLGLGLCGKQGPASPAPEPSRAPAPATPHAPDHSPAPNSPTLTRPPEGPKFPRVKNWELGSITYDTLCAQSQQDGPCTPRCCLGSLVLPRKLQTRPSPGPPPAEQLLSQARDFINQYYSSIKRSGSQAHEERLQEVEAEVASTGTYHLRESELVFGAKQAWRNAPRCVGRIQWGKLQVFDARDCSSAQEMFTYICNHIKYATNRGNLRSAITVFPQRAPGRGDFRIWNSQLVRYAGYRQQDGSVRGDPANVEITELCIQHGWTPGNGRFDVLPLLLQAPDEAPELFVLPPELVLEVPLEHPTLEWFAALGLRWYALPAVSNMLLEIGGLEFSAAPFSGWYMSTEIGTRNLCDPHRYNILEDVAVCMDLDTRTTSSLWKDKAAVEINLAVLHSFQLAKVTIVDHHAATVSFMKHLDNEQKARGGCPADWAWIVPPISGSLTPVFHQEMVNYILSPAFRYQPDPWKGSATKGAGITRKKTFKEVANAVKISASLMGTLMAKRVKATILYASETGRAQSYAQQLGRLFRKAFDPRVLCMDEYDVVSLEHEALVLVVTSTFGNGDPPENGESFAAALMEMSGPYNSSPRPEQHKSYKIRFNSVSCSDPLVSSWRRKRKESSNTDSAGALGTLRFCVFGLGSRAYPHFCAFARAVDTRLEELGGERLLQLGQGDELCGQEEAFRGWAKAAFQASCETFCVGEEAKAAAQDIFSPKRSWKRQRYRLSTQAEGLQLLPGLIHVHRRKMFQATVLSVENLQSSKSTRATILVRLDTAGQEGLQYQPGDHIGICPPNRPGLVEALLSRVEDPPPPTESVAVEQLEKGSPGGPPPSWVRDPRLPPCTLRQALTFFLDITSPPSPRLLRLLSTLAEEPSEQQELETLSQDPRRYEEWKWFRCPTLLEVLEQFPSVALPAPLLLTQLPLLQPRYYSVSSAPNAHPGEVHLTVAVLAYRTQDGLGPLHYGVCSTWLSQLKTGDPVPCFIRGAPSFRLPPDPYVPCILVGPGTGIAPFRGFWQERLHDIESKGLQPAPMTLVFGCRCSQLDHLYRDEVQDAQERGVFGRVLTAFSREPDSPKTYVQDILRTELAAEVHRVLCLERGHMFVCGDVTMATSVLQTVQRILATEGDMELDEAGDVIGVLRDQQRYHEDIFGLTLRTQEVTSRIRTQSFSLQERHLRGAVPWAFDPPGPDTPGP

[5] = target: T3, Nitric oxide synthase, inducible (Mus musculus, UniProt P29477); assay: Inhibition against induced Nitric Oxide Synthase(iNOS)
T3 sequence (P29477 whole entry): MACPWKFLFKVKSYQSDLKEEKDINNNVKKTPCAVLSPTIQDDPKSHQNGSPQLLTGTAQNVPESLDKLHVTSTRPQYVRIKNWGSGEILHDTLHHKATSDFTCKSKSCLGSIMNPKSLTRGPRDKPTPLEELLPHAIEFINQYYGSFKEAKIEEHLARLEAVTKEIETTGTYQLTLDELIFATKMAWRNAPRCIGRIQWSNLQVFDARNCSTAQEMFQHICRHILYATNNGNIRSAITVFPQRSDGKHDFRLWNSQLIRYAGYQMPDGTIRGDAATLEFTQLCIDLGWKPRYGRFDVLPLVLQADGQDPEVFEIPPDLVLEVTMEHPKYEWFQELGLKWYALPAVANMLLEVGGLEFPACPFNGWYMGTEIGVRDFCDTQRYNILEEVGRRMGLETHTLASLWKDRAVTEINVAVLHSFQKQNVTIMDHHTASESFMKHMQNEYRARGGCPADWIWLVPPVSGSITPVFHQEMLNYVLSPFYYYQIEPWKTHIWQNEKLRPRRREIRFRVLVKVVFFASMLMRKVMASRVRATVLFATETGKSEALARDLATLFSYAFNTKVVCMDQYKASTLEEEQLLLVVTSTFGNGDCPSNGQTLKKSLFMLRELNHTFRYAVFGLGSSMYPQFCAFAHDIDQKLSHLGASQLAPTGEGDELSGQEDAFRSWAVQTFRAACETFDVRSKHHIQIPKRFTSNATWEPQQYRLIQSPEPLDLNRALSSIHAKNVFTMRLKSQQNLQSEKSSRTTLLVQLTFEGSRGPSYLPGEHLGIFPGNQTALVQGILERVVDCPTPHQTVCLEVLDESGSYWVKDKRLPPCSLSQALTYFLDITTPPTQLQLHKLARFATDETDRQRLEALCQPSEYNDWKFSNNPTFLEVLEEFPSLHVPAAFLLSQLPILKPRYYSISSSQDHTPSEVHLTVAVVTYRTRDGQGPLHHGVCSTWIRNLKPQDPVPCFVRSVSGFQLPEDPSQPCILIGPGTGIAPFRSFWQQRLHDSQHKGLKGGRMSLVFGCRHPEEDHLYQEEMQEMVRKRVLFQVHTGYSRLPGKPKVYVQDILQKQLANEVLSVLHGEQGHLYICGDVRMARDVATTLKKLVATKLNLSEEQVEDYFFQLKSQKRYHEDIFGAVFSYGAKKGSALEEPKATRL

[6] = Selectivity for neuronal (nNOS) and endothelial Nitric Oxide Synthase(eNOS); design: reference not given here

Chain of Nitric oxide synthase 1 (Rattus norvegicus) (P29476 whole entry): as the sequence (P29476 whole entry) above

K inact [1]	Ratio [2]	Ki (Nitric oxide synthase 1 [3])	Ki (Nitric oxide synthase 1 [4])	Ki (Nitric oxide synthase 3)	Ki [5]	Ratio [6]	Compound
0.024 min⁻¹	1.7	33 µM	3 µM	9 µM	5 µM	3	CCC/N=C(\N)n1cccn1
–	1.1	–	8 µM	100 µM	9 µM	13	Cc1ccn(C(=N)N)n1
–	1.1	–	700 µM	650 µM	780 µM	0.9	CCCC/N=C(\N)NCCC
–	0.3	–	12 µM	190 µM	3 µM	16	Cc1cnn(C(=N)N)c1
–	3.3	–	45 µM	180 µM	150 µM	4	CC(C)C/N=C(\N)n1cccn1
–	1.6	–	50 µM	120 µM	80 µM	2.4	N=C(NC1CC1)n1cccn1
–	2.2	–	10 µM	80 µM	22 µM	8	N=C(NCC1CC1)n1cccn1
–	6	–	2 µM	200 µM	12 µM	100	N=C(Nc1cccc(CN)c1)n1cccn1
–	2.1	–	350 µM	1500 µM	750 µM	4.3	Cc1cc(C)n(C(=N)N)n1
–	8.3	–	6 µM	460 µM	50 µM	77	NCCCC/N=C(\N)n1cccn1
–	0.8	–	60 µM	700 µM	50 µM	14	CCCCC/N=C(\N)n1cccn1
–	1	–	14 µM	25 µM	14 µM	1.8	CCCC/N=C(\N)n1cccn1

Compound	K inact [1]	Ratio [2]	Ki (Nitric oxide synthase 1 [3])	Ki (Nitric oxide synthase 1 [4])	Ki (Nitric oxide synthase 3)	Ki [5]	Ratio [6]
N=C(Nc1cccc(CN)c1)c1cccs1	–	–	–	–	0.46 µM	0.12 µM	–
N=C(N)n1cccn1	–	1.8	–	0.4 µM	0.5 µM	0.7 µM	1.3
N=C(Nc1cccc(CN)c1)c1ccco1	–	–	–	–	–	0.16 µM	–
